What all share (assay): Glasshouse assay for herbicidal activity (pre- and post-emergence), percentage phytotoxicity
Common to all, as to format: in vivo

Experiment [1] deals with Alopecurus myosuroides (ALOMY). The following applies: Alopecurus myosuroides. In a few lines: (§1)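 Pot-grown, standard soil. PRE: spray 1 d post-sowing; POST: ~12 d. Glasshouse 24/18 °C (warm spp.) / 20/16 °C (cool spp.), 16 h light, 65% RH, watered 2×/day. Visual % damage, 20 DAA PRE, 15 DAA POST.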
In the next experiment the test system is Avena fatua (AVEFA). The note with it: Avena fatua. In a few lines:
as §1

The test system of experiment [2] is Echinochloa crus-galli (ECHCG). The note with it: Echinochloa crus-galli. In a few lines: as §1
A further experiment deals with Lolium perenne (LOLPE). The note with it: Lolium perenne. In a few lines:
as §1

Where [3] appears, read: post-emergence, 360 h, 250 g/ha, post-emergence, 15 DAA, visual assessment (100%=total damage, 0%=no damage), read-out: Post-emergence herbicidal activity (percentage phytotoxicity) ALOMY POST.
Where [4] appears, read: pre-emergence, 480 h, 250 g/ha, pre-emergence, 20 DAA, visual assessment (100%=total damage, 0%=no damage), read-out: Pre-emergence herbicidal activity (percentage phytotoxicity) ALOMY PRE.
[5] abbreviates: post-emergence, 360 h, 250 g/ha, post-emergence, 15 DAA, visual assessment (100%=total damage, 0%=no damage), read-out: Post-emergence herbicidal activity (percentage phytotoxicity) AVEFA POST.
[6] abbreviates: pre-emergence, 480 h, 250 g/ha, pre-emergence, 20 DAA, visual assessment (100%=total damage, 0%=no damage), read-out: Pre-emergence herbicidal activity (percentage phytotoxicity) AVEFA PRE.
Where [7] appears, read: post-emergence, 360 h, 250 g/ha, post-emergence, 15 DAA, visual assessment (100%=total damage, 0%=no damage), read-out: Post-emergence herbicidal activity (percentage phytotoxicity) ECHCG POST.
Where [8] appears, read: pre-emergence, 480 h, 250 g/ha, pre-emergence, 20 DAA, visual assessment (100%=total damage, 0%=no damage), read-out: Pre-emergence herbicidal activity (percentage phytotoxicity) ECHCG PRE.
[9] abbreviates: post-emergence, 360 h, 250 g/ha, post-emergence, 15 DAA, visual assessment (100%=total damage, 0%=no damage), read-out: Post-emergence herbicidal activity (percentage phytotoxicity) LOLPE POST.
Where [10] appears, read: pre-emergence, 480 h, 250 g/ha, pre-emergence, 20 DAA, visual assessment (100%=total damage, 0%=no damage), read-out: Pre-emergence herbicidal activity (percentage phytotoxicity) LOLPE PRE.
Setting [11] is: post-emergence, 360 h, Rate 250 g/ha, post-emergence, assessed visually 15 DAA, 100%=total damage, 0%=no damage, read-out: Post-emergence herbicidal activity (percentage phytotoxicity) ALOMY POST.
Setting [12] is: pre-emergence, 480 h, Rate 250 g/ha, pre-emergence, assessed visually 20 DAA, 100%=total damage, 0%=no damage, read-out: Pre-emergence herbicidal activity (percentage phytotoxicity) ALOMY PRE.
[13] abbreviates: post-emergence, 360 h, Rate 250 g/ha, post-emergence, assessed visually 15 DAA, 100%=total damage, 0%=no damage, read-out: Post-emergence herbicidal activity (percentage phytotoxicity) AVEFA POST.
The mark [14] stands for this setting: pre-emergence, 480 h, Rate 250 g/ha, pre-emergence, assessed visually 20 DAA, 100%=total damage, 0%=no damage, read-out: Pre-emergence herbicidal activity (percentage phytotoxicity) AVEFA PRE.
[15] abbreviates: post-emergence, 360 h, Rate 250 g/ha, post-emergence, assessed visually 15 DAA, 100%=total damage, 0%=no damage, read-out: Post-emergence herbicidal activity (percentage phytotoxicity) ECHCG POST.
Setting [16] is: pre-emergence, 480 h, Rate 250 g/ha, pre-emergence, assessed visually 20 DAA, 100%=total damage, 0%=no damage, read-out: Pre-emergence herbicidal activity (percentage phytotoxicity) ECHCG PRE.
The mark [17] stands for this setting: post-emergence, 360 h, Rate 250 g/ha, post-emergence, assessed visually 15 DAA, 100%=total damage, 0%=no damage, read-out: Post-emergence herbicidal activity (percentage phytotoxicity) LOLPE POST.
Where [18] appears, read: pre-emergence, 480 h, Rate 250 g/ha, pre-emergence, assessed visually 20 DAA, 100%=total damage, 0%=no damage, read-out: Pre-emergence herbicidal activity (percentage phytotoxicity) LOLPE PRE.

The structures appear in SMILES notation. Read-outs that look alike come from different tables or passages of the source.

For `COCCCNC(=O)CC1CC(=O)C(c2c(C)cc(-c3ncc(Cl)cc3F)cc2C)C1=O` (centres unmarked) [Compound B128], the pest or weed control at 250 g/ha (in experiment [1] (setting [3]); in experiment [1] (setting [4]); in the experiment on Avena fatua (AVEFA) (setting [5]); in the experiment on Avena fatua (AVEFA) (setting [6]); in experiment [2] (setting [7]); in experiment [2] (setting [8])) was 100% throughout. For the same compound, the pest or weed control at 250 g/ha in the experiment with Lolium perenne (LOLPE) (setting [9]) and with Lolium perenne (LOLPE) (setting [10]) was 100% each time.
Turning to `Cc1cc(C)c(C2C(=O)CC(CC(=O)NCc3ccccc3C(F)(F)F)C2=O)c(C)c1` (centres unmarked) [Compound B19], the pest or weed control at 250 g/ha in experiment [1] (setting [3]) stood at 50%; in experiment [1] (setting [4]), 10%; with Avena fatua (AVEFA) (setting [5]) it was 50%; with Avena fatua (AVEFA) (setting [6]), 20%; in experiment [2] (setting [7]), 70%; in experiment [2] (setting [8]) it was 90%. Moreover, the pest or weed control at 250 g/ha in the experiment with Lolium perenne (LOLPE) (setting [9]) was found to be 70%; with Lolium perenne (LOLPE) (setting [10]), 80%.
As to `CCCNC(=O)CC1CC(=O)C(c2c(C)cc(-c3ncc(Cl)cc3F)cc2C)C1=O` (centres unmarked) [Compound B144], the pest or weed control at 250 g/ha (in experiment [1] (setting [3]); in experiment [1] (setting [4]); with Avena fatua (AVEFA) (setting [5]); with Avena fatua (AVEFA) (setting [6]); in experiment [2] (setting [7]); in experiment [2] (setting [8])) was 100% in each case. Also, the pest or weed control at 250 g/ha in the experiment on Lolium perenne (LOLPE) (setting [9]) and with Lolium perenne (LOLPE) (setting [10]) was 100% throughout.
Turning to `Cc1cc(C)c(C2=C(OC(=O)C(C)(C)C)CC(CC(N)=O)C2=O)c(C)c1` (centres unmarked) [Compound P11], the pest or weed control at 250 g/ha was 80% in experiment [1] (post-emergence, 360 h, Rate 250 g/ha, post-emergence, visual assessment 15 DAA, 100%=total damage, 0%=no damage, read-out: Post-emergence herbicidal activity (percentage phytotoxicity) ALOMY POST); 70% in experiment [1] (pre-emergence, 480 h, Rate 250 g/ha, pre-emergence, visual assessment 20 DAA, 100%=total damage, 0%=no damage, read-out: Pre-emergence herbicidal activity (percentage phytotoxicity) ALOMY PRE); 90% in the experiment with Avena fatua (AVEFA) (post-emergence, 360 h, Rate 250 g/ha, post-emergence, visual assessment 15 DAA, 100%=total damage, 0%=no damage, read-out: Post-emergence herbicidal activity (percentage phytotoxicity) AVEFA POST); 30% in the experiment on Avena fatua (AVEFA) (pre-emergence, 480 h, Rate 250 g/ha, pre-emergence, visual assessment 20 DAA, 100%=total damage, 0%=no damage, read-out: Pre-emergence herbicidal activity (percentage phytotoxicity) AVEFA PRE); 90% in experiment [2] (post-emergence, 360 h, Rate 250 g/ha, post-emergence, visual assessment 15 DAA, 100%=total damage, 0%=no damage, read-out: Post-emergence herbicidal activity (percentage phytotoxicity) ECHCG POST); 90% in experiment [2] (pre-emergence, 480 h, Rate 250 g/ha, pre-emergence, visual assessment 20 DAA, 100%=total damage, 0%=no damage, read-out: Pre-emergence herbicidal activity (percentage phytotoxicity) ECHCG PRE). Moreover, the pest or weed control at 250 g/ha with Lolium perenne (LOLPE) (post-emergence, 360 h, Rate 250 g/ha, post-emergence, visual assessment 15 DAA, 100%=total damage, 0%=no damage, read-out: Post-emergence herbicidal activity (percentage phytotoxicity) LOLPE POST) was found to be 90%; with Lolium perenne (LOLPE) (pre-emergence, 480 h, Rate 250 g/ha, pre-emergence, visual assessment 20 DAA, 100%=total damage, 0%=no damage, read-out: Pre-emergence herbicidal activity (percentage phytotoxicity) LOLPE PRE), 80%.
On to `Cc1cc(-c2ncc(Cl)cn2)cc(C)c1C1=C(OC(=O)C(C)(C)C)CC(CC(=O)NC(C)(C)C)C1=O` (centres unmarked) [Compound P3], for which the pest or weed control at 250 g/ha in experiment [1] (post-emergence, 360 h, post-emergence, 250 g/ha, 15 DAA, visual score (100%=total damage; 0%=no damage), read-out: ALOMY POST herbicidal activity (percentage phytotoxicity)) turned out to be 100%; in experiment [1] (pre-emergence, 480 h, pre-emergence, 250 g/ha, 20 DAA, visual score (100%=total damage; 0%=no damage), read-out: ALOMY PRE herbicidal activity (percentage phytotoxicity)) it was 100%; in the experiment with Avena fatua (AVEFA) (post-emergence, 360 h, post-emergence, 250 g/ha, 15 DAA, visual score (100%=total damage; 0%=no damage), read-out: AVEFA POST herbicidal activity (percentage phytotoxicity)), 90%; with Avena fatua (AVEFA) (pre-emergence, 480 h, pre-emergence, 250 g/ha, 20 DAA, visual score (100%=total damage; 0%=no damage), read-out: AVEFA PRE herbicidal activity (percentage phytotoxicity)), 80%; in experiment [2] (post-emergence, 360 h, post-emergence, 250 g/ha, 15 DAA, visual score (100%=total damage; 0%=no damage), read-out: ECHCG POST herbicidal activity (percentage phytotoxicity)) it was 100%; in experiment [2] (pre-emergence, 480 h, pre-emergence, 250 g/ha, 20 DAA, visual score (100%=total damage; 0%=no damage), read-out: ECHCG PRE herbicidal activity (percentage phytotoxicity)), 100%. Besides, the pest or weed control at 250 g/ha in the experiment with Lolium perenne (LOLPE) (post-emergence, 360 h, post-emergence, 250 g/ha, 15 DAA, visual score (100%=total damage; 0%=no damage), read-out: LOLPE POST herbicidal activity (percentage phytotoxicity)) was determined as 100%; in the experiment with Lolium perenne (LOLPE) (pre-emergence, 480 h, pre-emergence, 250 g/ha, 20 DAA, visual score (100%=total damage; 0%=no damage), read-out: LOLPE PRE herbicidal activity (percentage phytotoxicity)), 100%.
Take `CC#Cc1cc(C)c(C2C(=O)CC(CC(=O)NCC(C)(C)C)C2=O)c(C)c1` (centres unmarked) [Compound A65]: the pest or weed control at 250 g/ha in experiment [1] (setting [11]) came to 90%; in experiment [1] (setting [12]), 100%; in the experiment with Avena fatua (AVEFA) (setting [13]), 90%; in the experiment on Avena fatua (AVEFA) (setting [14]), 70%; in experiment [2] (setting [15]), 100%; in experiment [2] (setting [16]) it was 100%. Moreover, the pest or weed control at 250 g/ha with Lolium perenne (LOLPE) (setting [17]) is 80%; in the experiment on Lolium perenne (LOLPE) (setting [18]), 90%.
Regarding `Cc1cc(C)c(C2C(=O)CC(CC(=O)N(C)CC(C)C)C2=O)c(C)c1` (centres unmarked) [Compound A159], the pest or weed control at 250 g/ha in experiment [1] (setting [11]) was found to be 70%; in experiment [1] (setting [12]) it was 60%; with Avena fatua (AVEFA) (setting [13]) it was 50%; in the experiment with Avena fatua (AVEFA) (setting [14]), 20%; in experiment [2] (setting [15]), 80%; in experiment [2] (setting [16]), 90%. For the same compound, the pest or weed control at 250 g/ha with Lolium perenne (LOLPE) (setting [17]) and with Lolium perenne (LOLPE) (setting [18]) was 90% throughout.

(Values after US10206394B2, “Herbicidal compounds” (Syngenta Participations AG, priority 2014, dated 2019).)
